Reference: ChEMBL document CHEMBL4396913, “Synthesis and biological evaluation of hybrid quinolone-based quaternary ammonium antibacterial agents” (Eur J Med Chem, 2019)
Values after ≈ are worked out from the molar mass of the structure shown. Active and inactive are the calls of the source. The rule behind the calls is not given here.

Legend:
Pseudomonas aeruginosa [1] = assay: Antibacterial activity against Pseudomonas aeruginosa ATCC 9027 cultured in MH medium assessed as reduction in bacterial growth incubated for 48 hrs by microbroth dilution method; format: functional; conditions: ATCC 9027, 48 h
[2] = test system: Staphylococcus epidermidis; assay: Ratio of gatifloxacin resistance index to compound resistance index for methicillin resistant Staphylococcus epidermidis ATCC 13199 by microbroth dilution method; format: functional
Staphylococcus aureus [3] = assay: Bactericidal activity against Staphylococcus aureus ATCC 6538 cultured in MH medium assessed as reduction in bacterial survival incubated for 48 hrs by microbroth dilution method; format: functional; conditions: ATCC 6538, 48 h
Escherichia coli [4] = assay: Bactericidal activity against […] Escherichia coli ATCC 8739 assessed as reduction in bacterial survival incubated for 48 hrs in presence of 50 ug/ml […], PAbetaN by microbroth dilution method; format: functional; conditions: ATCC 8739, 48 h
Staphylococcus aureus [5] = assay: Antibacterial activity against Staphylococcus aureus ATCC 6538 cultured in MH medium assessed as reduction in bacterial growth incubated for 48 hrs by microbroth dilution method; format: functional; conditions: ATCC 6538, 48 h
Escherichia coli [6] = assay: Antibacterial activity against […] Escherichia coli ATCC 8739 assessed as reduction in bacterial growth incubated for 48 hrs in presence of 50 ug/ml […], PAbetaN by microbroth dilution method; format: functional; conditions: ATCC 8739, 48 h
[7] = test system: Staphylococcus epidermidis; assay: Bactericidal activity against methicillin resistant Staphylococcus epidermidis ATCC 13199 cultured in MH medium assessed as reduction in bacterial survival incubated for 48 hrs by microbroth dilution method; format: functional; conditions: ATCC 13199, 48 h
Proteus vulgaris [8] = assay: Bactericidal activity against Proteus vulgaris NCTC 4635 cultured in MH medium assessed as reduction in bacterial survival incubated for 48 hrs by microbroth dilution method; format: functional; conditions: NCTC 4635, 48 h
[9] = test system: Staphylococcus epidermidis; assay: Bactericidal activity against Staphylococcus epidermidis ATCC 14990 cultured in MH medium assessed as reduction in bacterial survival incubated for 48 hrs by microbroth dilution method; format: functional; conditions: ATCC 14990, 48 h
HEK293 [10] = assay: Cytotoxicity against human HEK293 cells assessed as cell viability upto 20 uM incubated for 72 hrs by MTT assay; format: cell-based; conditions: hek293, 72 h
Escherichia coli [11] = assay: Antibacterial activity against Escherichia coli ATCC 8739 cultured in MH medium assessed as reduction in bacterial growth incubated for 48 hrs by microbroth dilution method; format: functional; conditions: ATCC 8739, 48 h
Streptococcus pneumoniae [12] = assay: Bactericidal activity against Streptococcus pneumoniae cultured in MH medium assessed as reduction in bacterial survival incubated for 48 hrs by microbroth dilution method; format: functional
Bacillus spizizenii [13] = assay: Antibacterial activity against Bacillus subtilis ATCC 6633 cultured in MH medium assessed as reduction in bacterial growth incubated for 48 hrs by microbroth dilution method; format: functional; conditions: ATCC 6633, 48 h
Staphylococcus aureus [14] = assay: Bactericidal activity against methicillin resistant Staphylococcus aureus 6347 cultured in MH medium assessed as reduction in bacterial survival incubated for 48 hrs by microbroth dilution method; format: functional; conditions: Staphylococcus aureus, 6347, 48 h
Staphylococcus aureus [15] = assay: Bactericidal activity against methicillin resistant Staphylococcus aureus N315 cultured in MH medium assessed as reduction in bacterial survival incubated for 48 hrs by microbroth dilution method; format: functional; conditions: N315, 48 h
Serratia marcescens [16] = assay: Antibacterial activity against Serratia marcescens ATCC 12795 cultured in MH medium assessed as reduction in bacterial growth incubated for 48 hrs by microbroth dilution method; format: functional; conditions: ATCC 12795, 48 h
Streptococcus pneumoniae [17] = assay: Antibacterial activity against Streptococcus pneumoniae cultured in MH medium assessed as reduction in bacterial growth incubated for 48 hrs by microbroth dilution method; format: functional
Proteus vulgaris [18] = assay: Antibacterial activity against Proteus vulgaris NCTC 4635 measured after 15 passages by microbroth dilution method; format: functional
[19] = test system: Staphylococcus epidermidis; assay: Antibacterial activity against Staphylococcus epidermidis ATCC 14990 cultured in MH medium assessed as reduction in bacterial growth incubated for 48 hrs by microbroth dilution method; format: functional; conditions: ATCC 14990, 48 h
Escherichia coli [20] = assay: Bactericidal activity against Escherichia coli ATCC 8739 cultured in MH medium assessed as reduction in bacterial survival incubated for 48 hrs by microbroth dilution method; format: functional; conditions: ATCC 8739, 48 h
HEK293 [21] = assay: Cytotoxicity against human HEK293 cells assessed as changes in cell morphology upto 20 uM incubated for 72 hrs by MTT assay; format: cell-based; conditions: hek293, 72 h
[22] = test system: Staphylococcus epidermidis; assay: Antibacterial activity against methicillin resistant Staphylococcus epidermidis ATCC 13199 cultured in MH medium assessed as reduction in bacterial growth incubated for 48 hrs by microbroth dilution method; format: functional; conditions: ATCC 13199, 48 h
Pseudomonas aeruginosa [23] = assay: Bactericidal activity against Pseudomonas aeruginosa ATCC 9027 cultured in MH medium assessed as reduction in bacterial survival incubated for 48 hrs by microbroth dilution method; format: functional; conditions: ATCC 9027, 48 h
Staphylococcus aureus [24] = assay: Antibacterial activity against methicillin resistant Staphylococcus aureus N315 cultured in MH medium assessed as reduction in bacterial growth incubated for 48 hrs by microbroth dilution method; format: functional; conditions: N315, 48 h
Bacillus spizizenii [25] = assay: Bactericidal activity against Bacillus subtilis ATCC 6633 cultured in MH medium assessed as reduction in bacterial survival incubated for 48 hrs by microbroth dilution method; format: functional; conditions: ATCC 6633, 48 h
Proteus vulgaris [26] = assay: Resistance index, ratio of MIC for Proteus vulgaris NCTC 4635 measured after 15 passages to MIC for Proteus vulgaris NCTC 4635 measured after 48 hrs incubation by microbroth dilution method; format: functional
[27] = Lipophilicity, log k of the compound at 100 ug/ml by micellar electrokinetic chromatography; format: physicochemical
Staphylococcus aureus [28] = assay: Antibacterial activity against methicillin resistant Staphylococcus aureus 6347 cultured in MH medium assessed as reduction in bacterial growth incubated for 48 hrs by microbroth dilution method; format: functional; conditions: Staphylococcus aureus, 6347, 48 h
Proteus vulgaris [29] = assay: Antibacterial activity against Proteus vulgaris NCTC 4635 cultured in MH medium assessed as reduction in bacterial growth incubated for 48 hrs by microbroth dilution method; format: functional; conditions: NCTC 4635, 48 h
Enterococcus hirae [30] = assay: Antibacterial activity against Enterococcus hirae ATCC 1052 cultured in BHI medium assessed as reduction in bacterial growth incubated for 48 hrs by microbroth dilution method; format: functional; conditions: ATCC 1052, 48 h
Serratia marcescens [31] = assay: Bactericidal activity against Serratia marcescens ATCC 12795 cultured in MH medium assessed as reduction in bacterial survival incubated for 48 hrs by microbroth dilution method; format: functional; conditions: ATCC 12795, 48 h
Staphylococcus aureus [32] = assay: Antibiofilm activity against Staphylococcus aureus ATCC 6538 assessed as biofilm formation at 0.5 times antibacterial MIC incubated for 24 hrs compound added prior to bacterial biofilm formation by total biomass crystal violet staining-based method relative to control; format: functional
Pseudomonas aeruginosa [33] = assay: Antibiofilm activity against Pseudomonas aeruginosa ATCC 9027 assessed as biofilm formation at 0.5 times antibacterial MIC incubated for 24 hrs compound added prior to bacterial biofilm formation by total biomass crystal violet staining-based method relative to control; format: functional
Staphylococcus aureus [34] = conditions: ATCC 25923, 10 to 40 uM
Description: Antibiofilm activity Staphylococcus aureus ATCC 25923 pre-formed mature biofilm assessed as reduction in biofilm viability at 10 to 40 uM incubated for 24 hrs compound added post-biofilm formation by resazurin staining based assay relative to control

Pseudomonas aeruginosa [35] = assay: Biofilm degradation activity against Pseudomonas aeruginosa ATCC 9027 assessed as biofilm formation at 2 times antibacterial MIC incubated for 24 hrs compound added post-biofilm formation by total biomass crystal violet staining-based method; format: functional
Staphylococcus aureus [36] = assay: Biofilm degradation activity against Staphylococcus aureus ATCC 6538 assessed as biofilm formation at 2 times antibacterial MIC incubated for 24 hrs compound added post-biofilm formation by total biomass crystal violet staining-based method; format: functional
Pseudomonas aeruginosa [37] = assay: Biofilm degradation activity against Pseudomonas aeruginosa ATCC 9027 assessed as biofilm formation at antibacterial MIC incubated for 24 hrs compound added post-biofilm formation by total biomass crystal violet staining-based method; format: functional
Staphylococcus aureus [38] = assay: Biofilm degradation activity against Staphylococcus aureus ATCC 6538 assessed as biofilm formation at antibacterial MIC incubated for 24 hrs compound added post-biofilm formation by total biomass crystal violet staining-based method; format: functional
Staphylococcus aureus [39] = assay: Antibiofilm activity against Staphylococcus aureus ATCC 6538 assessed as biofilm formation at antibacterial MIC incubated for 24 hrs compound added prior to bacterial biofilm formation by total biomass crystal violet staining-based method relative to control; format: functional
[40] = biological target: DNA gyrase (Escherichia coli) (UniProt P0AES6+P0AES4); assay: Inhibition of Escherichia coli DNA gyrase super-coiling activity using relaxed pNO1 DNA as substrate assessed as enzyme residual activity at 1 uM incubated for 30 mins by fluorescence assay relative to control; format: protein-complex assay
Staphylococcus aureus [41] = conditions: ATCC 25923, 10 to 40 uM; remark: listed apart in the source
Description: Antibiofilm activity Staphylococcus aureus ATCC 25923 pre-formed mature biofilm assessed as reduction in biofilm biomass at 10 to 40 uM incubated for 24 hrs compound added post biofilm formation by crystal violet staining based assay relative to control

Pseudomonas aeruginosa [42] = assay: Antibiofilm activity against Pseudomonas aeruginosa ATCC 9027 assessed as biofilm formation at antibacterial MIC incubated for 24 hrs compound added prior to bacterial biofilm formation by total biomass crystal violet staining-based method relative to control; format: functional
Enterococcus hirae [43] = assay: Bactericidal activity against Enterococcus hirae ATCC 1052 cultured in BHI medium assessed as reduction in bacterial survival incubated for 48 hrs by microbroth dilution method; format: functional; conditions: ATCC 1052, 48 h
Staphylococcus aureus [44] = assay: Biofilm degradation activity against Staphylococcus aureus ATCC 6538 assessed as biofilm formation at 4 times antibacterial MIC incubated for 24 hrs compound added post-biofilm formation by total biomass crystal violet staining-based method; format: functional
Escherichia coli [45] = assay: Induction of inner membrane permeabilization in Escherichia coli ATCC 8739 assessed as increase in release of cytoplasmic beta galactosidase using ONPG as substrate at 128 ug/ml incubated for 90 mins compound added with bacterial cells after lag time of about 10 mins by spectrophotometry; format: organism-based
Pseudomonas aeruginosa [46] = assay: Biofilm degradation activity against Pseudomonas aeruginosa ATCC 9027 assessed as biofilm formation at 4 times antibacterial MIC incubated for 24 hrs compound added post-biofilm formation by total biomass crystal violet staining-based method; format: functional

Structure (SMILES)	MBC (Staphylococcus aureus [3]) [µg/mL]	MIC (Staphylococcus aureus [5]) [µg/mL]	MBC (Proteus vulgaris [8]) [µg/mL]	MBC [9] [µg/mL]	MIC (Escherichia coli [11]) [µg/mL]	MBC (Streptococcus pneumoniae [12]) [µg/mL]	MIC (Bacillus spizizenii [13]) [µg/mL]	MBC (Staphylococcus aureus [14]) [µg/mL]	MIC (Serratia marcescens [16]) [µg/mL]	MIC (Streptococcus pneumoniae [17]) [µg/mL]	MIC [19] [µg/mL]	MBC (Escherichia coli [20]) [µg/mL]	MBC (Pseudomonas aeruginosa [23]) [µg/mL]	MIC (Staphylococcus aureus [24]) [µg/mL]	MBC (Bacillus spizizenii [25]) [µg/mL]	MIC (Staphylococcus aureus [28]) [µg/mL]	MIC (Proteus vulgaris [29]) [µg/mL]	MIC (Enterococcus hirae [30]) [µg/mL]	MBC (Serratia marcescens [31]) [µg/mL]	other results
COc1c(N2CC[N+]3(CN4C(C)=CC(C)=C(C(=O)O)C4=N3)C(C)C2)c(F)cc2c(=O)c(C(=O)O)cn(C3CC3)c12.[Cl-] (stereo not given)	16	8	0.5	16	2	256	2	16	32	128	8	2	256	8	2	8	0.5	> 512	32	MIC (Pseudomonas aeruginosa [1]): 32 µg/mL; Ratio [2]: 2; MBC (Escherichia coli [4]): 2 µg/mL; MIC (Escherichia coli [6]): 1 µg/mL; MBC [7]: 8 µg/mL; Activity (HEK293 [10]): Non-Toxic; MBC (Staphylococcus aureus [15]): 8 µg/mL; MIC (Proteus vulgaris [18]): 2 µg/mL; Activity (HEK293 [21]): Non-Toxic; MIC [22]: 4 µg/mL; Ratio (Proteus vulgaris [26]): 4; log K [27]: -0.408
O=C(O)c1cn(C2CC2)c2cc(N3CCNCC3)c(F)cc2c1=O [CIPROFLOXACIN]	0.5 (≈ 1.51 µM)	0.25 (≈ 0.754 µM)	0.008 (≈ 0.0241 µM)	0.25 (≈ 0.754 µM)	0.032 (≈ 0.0966 µM)	> 512	0.032 (≈ 0.0966 µM)	0.5 (≈ 1.51 µM)	0.125 (≈ 0.377 µM)	8 (≈ 24.1 µM)	0.25 (≈ 0.754 µM)	0.032 (≈ 0.0966 µM)	0.5 (≈ 1.51 µM)	1 (≈ 3.02 µM)	0.063 (≈ 0.19 µM)	0.25 (≈ 0.754 µM)	0.008 (≈ 0.0241 µM)	128 (≈ 386 µM)	0.125 (≈ 0.377 µM)	Activity (Staphylococcus aureus [32]): 5%; Activity (Pseudomonas aeruginosa [33]): 7%; inhibition (Staphylococcus aureus [34]): Active; Activity (Pseudomonas aeruginosa [35]): 72%; Activity (Staphylococcus aureus [36]): 17%; Activity (Pseudomonas aeruginosa [37]): 76%; Activity (Staphylococcus aureus [38]): 21%; Activity (Staphylococcus aureus [39]): 3%; Activity [40]: 7%; inhibition (Staphylococcus aureus [41]): Active; Activity (Pseudomonas aeruginosa [42]): 3%; MBC (Enterococcus hirae [43]): 128 µg/mL (≈ 386 µM); Activity (Staphylococcus aureus [44]): 31%; Activity (Escherichia coli [45]): Active; Activity (Pseudomonas aeruginosa [46]): 64%
